In patent US20240391954A1, “MC4R AGONIST PEPTIDES” (The Regents of the University of Michigan, priority 2021, published 2024):
Positions of bridges follow the written chain, without caps; N, C: chain ends. Non-standard residues stand in square brackets, D forms with d. Residues, ends and D or L forms follow the SMILES beside them. dPhe(4-Br) = N[C@H](Cc1ccc(Br)cc1)C(=O)O; d2Nal = N[C@H](Cc1ccc2ccccc2c1)C(=O)O; Nle = CCCC[C@H](N)C(=O)O; Orn = NCCC[C@H](N)C(=O)O; Aib = CC(C)(N)C(=O)O

Legend:
human MC3R [1] = biological target: T1, human MC3R (Homo sapiens, UniProt P41968); assay: split-luciferase cAMP sensor assay, agonist mode (measurement window 1), hMC3R; assay type: cell-based; details: for Emax: read-out: MC3R cAMP % max activation; for EC50: HEK-293 cells stably expressing hMC3R, read-out: MC3R cAMP EC50; for MC4R selectivity vs MC3R: MC4R versus MC3R
T1 construct: expressed in transfected cells; host or cells: HEK-293 cells stably expressing the GScAMP22F split-luciferase cAMP sensor (parent reporter line from Promega); MC3R clone generated in-house, G418 selection
How it was run: (§1)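 Live stable cell lines carrying receptor plus GloSensor cAMP22f split-luciferase, loaded with 4% D-luciferin in serum-free medium (~1% serum estimated during assay). Luminescence recorded during in-line peptide addition; direct agonist effect read in window 1, with 20 μM forskolin as normalization reference. EC50 from four-parameter sigmoid fit.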

human MC4R = biological target: T2, human MC4R (Homo sapiens, UniProt P32245); assay: split-luciferase cAMP sensor assay, agonist mode (measurement window 1), hMC4R; assay type: cell-based; details: agonist mode; for Emax: read-out: MC4R cAMP % max activation; for EC50: HEK-293 cells stably expressing hMC4R, read-out: MC4R cAMP EC50
T2 construct: host or cells: HEK-293 cells stably expressing the GScAMP22F split-luciferase cAMP sensor and hMC4R, G418 selection
How it was run: as §1

human MC1R = biological target: T3, human MC1R (Homo sapiens, UniProt Q01726); assay: split-luciferase cAMP sensor assay, agonist mode, hMC1R; assay type: cell-based; details: MC4R versus MC1R
T3 construct: expressed in transfected cells; host or cells: HEK-293 cells stably expressing hMC1R and the GScAMP22F cAMP sensor
Method: FIG. 4A-B. (A) Pharmacological properties of exemplary MC4R agonist peptides, including those with improved efficacy in the MC4R+/− mouse (CTX-1211, CTX-1227, and CTX-1228). Concentration-response agonist curves for peptides indicated at the human MC4R (red), human MC3R (blue), human MC5R (green), and human MC1R (black) were determined by a split-luciferase cAMP sensor dynamic assay in HEK-293 cells stably expressing the hMC1R, hMC3R, hMC4R, or hMC5R and the GScAMP22F cAMP sensor. Each data point represents the mean±SEM of two experiments with three replicates each per experiment. Data is normalized to the ECmax of α-MSH. (B) Same as above, for peptides representing reduced activity at the hMC1R. Inset tables indicate EC50 values for the ligand indicated for each receptor.
The assay for the determination of the cAMP response in live cells was described previously. (Yu et al., 2020, Science 368, 428-433; incorporated by reference in its entirety). Cells were seeded at a density of 20,000 cells per well using 384-well poly-D lysine-coated, clear bottom, and black-wall assay plates (Corning Inc. Corning, NJ). Cells were allowed to attach to the plates for 18 to 24 h after which growth media was removed and 20 μl of 4% D-luciferin (Promega) in CO2 independent, serum-free medium (Thermo Fisher Scientific) was added to each well. The luciferase substrate was allowed to permeate the cells for 120 min at 37° C. Intracellular cAMP levels were measured using an FDSS 7000EX Functional Drug Screening System (Hamamatsu Photonics, Hamamatsu, Japan) in the Center for Chemical Genomics at the Life Sciences Institute. This instrument allowed the in-line addition of test-peptides and receptor agonists while simultaneously acquiring the luminescence signal from live cells. Assay read steps were set as follows: baseline acquisition of 2 min, the addition of 10 μl of varying 3× concentrations of test-peptides or vehicle followed by 11 min measurement (measurement window 1), and 10 μl addition of 4× concentration of the endogenous melanocortin agonist α-MSH (Bachem, Bubendorf, Switzerland) followed by an additional 11 min response measurement (measurement window 2). The resulting final concentration of α-MSH was close to the respective receptor EC90 dose for each receptor. Intraplate concentration response curves for α-MSH and SHU-9119 (Phoenix Pharmaceuticals, Burlingame CA) were included as reference controls. A submaximal forskolin (20 μM) concentration was also included to serve as a normalization reference to account for cell number variations and differences in assay transducer efficiency between cell lines.
With this set up it was possible to evaluate the direct effect of the test-peptides on the MC3R and MC4R cell lines during measurement window 1, while the antagonist profile in the presence of EC90 α-MSH was determined on measurement window 2. For data analysis baseline luminescence (i.e. the maximum luminescence signal from the initial 0 to 2 min window) was subtracted from the maximum luminescence obtained during measurement window 1 (2 to 13 min) and measurement window 2 (13 to 24 min) to yield the test-peptide elicited responses. EC50 or IC50 potency values were determined by non-linear regression by fitting the data to a sigmoid four-parameter variable slope model using the GraphPad Prism version 8.4 software package (San Diego CA).

human MC3R [2] = biological target: human MC3R (human, UniProt P41968 1-323); assay: cell-based or functional assay
human MC4R receptor [3] = biological target: T4, human MC4R receptor (human, UniProt P32245 1-332); assay: cell-based or functional assay
human MC4R receptor [4] = biological target: T4, human MC4R receptor; assay: cell-based or functional assay; remark: listed apart in the source
[5] = % maximal activation, agonist mode

T2 sequence (P32245 whole entry): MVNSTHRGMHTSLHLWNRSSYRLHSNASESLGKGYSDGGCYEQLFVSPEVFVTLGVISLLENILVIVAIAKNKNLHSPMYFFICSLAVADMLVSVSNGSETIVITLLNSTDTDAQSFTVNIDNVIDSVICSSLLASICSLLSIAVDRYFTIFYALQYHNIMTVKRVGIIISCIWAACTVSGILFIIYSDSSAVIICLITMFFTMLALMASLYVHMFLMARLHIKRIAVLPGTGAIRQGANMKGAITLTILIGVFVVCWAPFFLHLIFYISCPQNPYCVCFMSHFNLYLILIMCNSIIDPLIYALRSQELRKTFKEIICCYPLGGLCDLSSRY
T4 sequence (P32245 whole entry): as above
T3 sequence (Q01726 whole entry): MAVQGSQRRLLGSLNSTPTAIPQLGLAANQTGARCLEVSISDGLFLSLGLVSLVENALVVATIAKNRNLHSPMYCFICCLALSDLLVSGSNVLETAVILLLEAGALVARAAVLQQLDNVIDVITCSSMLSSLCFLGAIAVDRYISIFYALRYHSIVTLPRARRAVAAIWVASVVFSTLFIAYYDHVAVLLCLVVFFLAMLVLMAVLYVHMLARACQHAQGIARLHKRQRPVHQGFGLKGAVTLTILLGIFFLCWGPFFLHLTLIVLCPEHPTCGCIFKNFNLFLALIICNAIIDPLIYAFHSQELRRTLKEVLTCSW
T1 sequence (P41968 whole entry): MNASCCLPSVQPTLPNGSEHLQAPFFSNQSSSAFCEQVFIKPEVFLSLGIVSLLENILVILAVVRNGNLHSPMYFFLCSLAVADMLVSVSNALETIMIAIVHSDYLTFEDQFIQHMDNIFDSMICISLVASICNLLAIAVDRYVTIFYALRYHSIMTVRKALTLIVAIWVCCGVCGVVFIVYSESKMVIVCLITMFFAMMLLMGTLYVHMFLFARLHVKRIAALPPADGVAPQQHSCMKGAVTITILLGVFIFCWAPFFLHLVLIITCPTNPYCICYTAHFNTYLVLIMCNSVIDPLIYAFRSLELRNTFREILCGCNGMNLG
human MC3R (human, UniProt P41968 1-323), sequence (P41968 whole entry): as above

Row | Molecule | Emax (human MC3R [1]; [5]) [%] | EC50 (human MC3R [1]; agonist mode) [µM] | MC4R selectivity vs MC3R (human MC3R [1]) | Emax (human MC4R; % maximal activation) [%] | EC50 (human MC4R) [µM] | MC4R selectivity vs MC1R (human MC1R) | MC3R cAMP % max activation (human MC3R [1]; [5]) | MC4R cAMP % max activation (human MC4R; % maximal activation) | % max activation (human MC3R [2]) [%] | cAMP EC50 (human MC3R [2]) [µM] | % max activation (human MC4R receptor [3]) [%] | cAMP EC50 (human MC4R receptor [3]) [µM] | MC4R selectivity vs MC3R (human MC4R receptor [4]) | MC4R selectivity vs MC1R (human MC4R receptor [4])
1 | CC(=O)N[C@H]1CSSC[C@@H](C(N)=O)NC(=O)[C@H](Cc2c[nH]c3ccccc23)NC(=O)[C@H](CCCNC(=N)N)NC(=O)[C@@H](Cc2ccccc2)NC(=O)[C@H](CCCNC(=N)N)NC(=O)[C@@H](C)NC1=O [CTX-1627, cyclo(Cys-D-Ala-Arg-D-Phe-Arg-Trp-Cys)] (Ac-C[dA]R[dF]RWC-NH2; disulfide 1-7 (inferred)) | 98 | 0.0037 | 2.47 | 104 | 0.0014 | 9.33 | – | – | – | – | – | – | – | –
2 | COc1ccc(C[C@H]2NC(=O)[C@H](CCCNC(=N)N)NC(=O)C(C)(C)NC(=O)[C@@H](NC(=O)[C@H](CCCNC(=N)N)NC(C)=O)CSSC[C@@H](C(N)=O)NC(=O)[C@H](Cc3ccccc3)NC(=O)[C@H](CCCNC(=N)N)NC2=O)cc1 [CTX-1298, Arg-cyclo(Cys-Aib-Arg-D-Tyr(4-OMe)-Arg-Phe-Cys)] (Ac-RC[Aib]R[dY](Me)RFC-NH2; disulfide 2-8 (inferred)) | – | > 10 | 0.93 | 93 | 0.0033 | 0.12 | – | – | – | – | – | – | – | –
3 | CC[C@H]1NC(=O)[C@@H](NC(=O)[C@H](CCCNC(=N)N)NC(C)=O)CSSC[C@@H](C(N)=O)NC(=O)[C@H](Cc2c[nH]c3ccccc23)NC(=O)[C@H](CCCNC(=N)N)NC(=O)[C@@H](Cc2ccccc2)NC(=O)[C@H](Cc2c[nH]cn2)NC1=O [CTX-1295, Arg-cyclo(Cys-D-Abu-His-D-Phe-Arg-Trp-Cys)] | 97 | 0.0016 | 6.31 | 102 | 0.00025 | 2.79 | – | – | – | – | – | – | – | –
4 | CC(=O)N[C@@H](CCCNC(=N)N)C(=O)N[C@H]1CSSC[C@@H](C(N)=O)NC(=O)[C@H](Cc2c[nH]c3ccccc23)NC(=O)[C@H](CCCNC(=N)N)NC(=O)[C@@H](Cc2ccccc2)NC(=O)[C@H](Cc2c[nH]cn2)NC(=O)C(C)(C)NC1=O [CTX-1291, Arg-cyclo(Cys-Aib-His-D-Phe-Arg-Trp-Cys)] | 91 | – | 7.99 | 98 | – | 1.31 | – | – | – | – | – | – | – | –
5 | CCCC[C@H](NC(=O)[C@H](CCCNC(=N)N)NC(C)=O)C(=O)N[C@H]1CSSC[C@@H](C(N)=O)NC(=O)[C@H](Cc2c[nH]c3ccccc23)NC(=O)[C@H](CCCNC(=N)N)NC(=O)[C@@H](Cc2ccccc2)NC(=O)[C@H](CCCN)NC1=O [CTX-1617, Arg-Nle-cyclo(Cys-Orn-D-Phe-Arg-Trp-Cys)] (Ac-R[Nle]C[Orn][dF]RWC-NH2; disulfide 3-8) | 102 | – | 11 | 102 | – | 1.75 | – | – | – | – | – | – | – | –
6 | CC(=O)N[C@@H](CCCNC(=N)N)C(=O)N[C@H]1CSSC[C@@H](C(N)=O)NC(=O)[C@@H](Cc2ccc3ccccc3c2)NC(=O)[C@H](CCCNC(=N)N)NC(=O)[C@@H](Cc2ccccc2)NC(=O)[C@H](CCCNC(=N)N)NC(=O)[C@@H](C)NC1=O [CTX-1264, Arg-cyclo(Cys-D-Ala-Arg-D-Phe-Arg-D-Nal(2′)-Cys)] (Ac-RC[dA]R[dF]R[d2Nal]C-NH2; disulfide 2-8 (inferred)) | 44 | 0.0037 | 0.29 | 80 | 0.013 | 0.14 | – | – | – | – | – | – | – | –
7 | CC(=O)N[C@@H](CCCNC(=N)N)C(=O)N[C@H]1CSSC[C@@H](C(N)=O)NC(=O)[C@@H](Cc2ccccc2)NC(=O)[C@H](CCCNC(=N)N)NC(=O)[C@@H](Cc2ccccc2)NC(=O)[C@H](CCCNC(=N)N)NC(=O)[C@@H](C)NC1=O [CTX-1265, Arg-cyclo(Cys-D-Ala-Arg-D-Phe-Arg-D-Phe-Cys)] (Ac-RC[dA]R[dF]R[dF]C-NH2; disulfide 2-8 (inferred)) | – | – | 0.04 | – | – | 0.02 | (60%) | (71%) | – | – | – | – | – | –
8 | CC(=O)N[C@H]1CSSC[C@@H](C(N)=O)NC(=O)[C@H](Cc2c[nH]c3ccccc23)NC(=O)[C@H](CCCNC(=N)N)NC(=O)[C@@H](Cc2ccccc2)NC(=O)[C@H](CCCNC(=N)N)NC(=O)CNC1=O [CTX-1629, cyclo(Cys-Gly-Arg-D-Phe-Arg-Trp-Cys)] (Ac-CGR[dF]RWC-NH2; disulfide 1-7) | 83 | 0.013 | 19 | 102 | – | 15 | – | – | – | – | – | – | – | –
9 | CC(=O)N[C@H]1CSSC[C@@H](C(N)=O)NC(=O)[C@H](Cc2c[nH]c3ccccc23)NC(=O)[C@H](CCCNC(=N)N)NC(=O)[C@@H](Cc2ccccc2)NC(=O)[C@H](CCCNC(=N)N)NC(=O)C(C)(C)NC1=O [CTX-1632, cyclo(Cys-Aib-Arg-D-Phe-Arg-Trp-Cys)] (Ac-C[Aib]R[dF]RWC-NH2; disulfide 1-7) | 77 | – | 36 | 105 | – | 3.18 | – | – | – | – | – | – | – | –
10 | CCCC[C@H](NC(=O)[C@H](CCCNC(=N)N)NC(C)=O)C(=O)N[C@H]1CSSC[C@@H](C(N)=O)NC(=O)[C@@H](Cc2c[nH]c3ccccc23)NC(=O)[C@H](CCCNC(=N)N)NC(=O)[C@@H](Cc2ccccc2)NC(=O)[C@H](CCCNC(=N)N)NC1=O [CTX-1616, Arg-Nle-cyclo(Cys-Arg-D-Phe-Arg-D-Trp-Cys)] (Ac-R[Nle]CR[dF]R[dW]C-NH2; disulfide 3-8) | 78 | – | 3.78 | 93 | 0.016 | 1.51 | – | – | – | – | – | – | – | –
11 | Ac-RC[dA]P[d2Nal]RWC-NH2 (disulfide 2-8; SMILES CC(=O)N[C@@H](CCCNC(=N)N)C(=O)N[C@H]1CSSC[C@@H](C(N)=O)NC(=O)[C@H](Cc2c[nH]c3ccccc23)NC(=O)[C@H](CCCNC(=N)N)NC(=O)[C@@H](Cc2ccc3ccccc3c2)NC(=O)[C@@H]2CCCN2C(=O)[C@@H](C)NC1=O) [CTX-2203] | – | – | – | – | – | – | – | – | 1 | 0.029 | 1.4 | 0.012 | 2.45 | –
12 | Ac-RC[dA]P[dPhe(4-Br)]RWC-NH2 (disulfide 2-8; SMILES CC(=O)N[C@@H](CCCNC(=N)N)C(=O)N[C@H]1CSSC[C@@H](C(N)=O)NC(=O)[C@H](Cc2c[nH]c3ccccc23)NC(=O)[C@H](CCCNC(=N)N)NC(=O)[C@@H](Cc2ccc(Br)cc2)NC(=O)[C@@H]2CCCN2C(=O)[C@@H](C)NC1=O) [CTX-2204] | – | – | – | – | – | – | – | – | 0.2 | 0.011 | 13 | 0.058 | 0.19 | –
13 | Ac-RC[dA]R[dPhe(4-Br)]RWC-NH2 (disulfide 2-8) [CTX-2205] | – | – | – | – | – | – | – | – | 13 | 0.018 | 88 | 0.008 | 2.12 | 0.2
